# From US4992420A, “Dental anti-plaque and anti-caries agent” (priority 1987, dated 1991)
# Experiments:
# [1] = tested on: S. sanguis OMZ 9; experiment: microbe, parasite or virus in culture; conditions: Streptococcus, OMZ9, 4 h, read-out: Inhibition (%) of adhesion to plastic tubes, S. sanguis OMZ 9
# [2] = tested on: A. viscosus OMZ 105; experiment: microbe, parasite or virus in culture; conditions: Actinomyces viscosus, OMZ105, 4 h, read-out: Inhibition (%) of adhesion to plastic tubes, A. viscosus OMZ 105
# [3] = tested on: S. mutans OMZ 176; experiment: Inhibition of bacterial adhesion to plastic (polypropylene) tubes, S. mutans; conditions: for inhibition at 1000 µg/mL: Streptococcus mutans, OMZ176, 4 h, read-out: Inhibition (%) of adhesion to plastic tubes, S. mutans OMZ 176; for Inhibition (%) of adhesion to plastic tubes, S. mutans OMZ 176: 1 mg/ml, 4 h
# [4] = tested on: A. naeslundii ATCC 12104; conditions: desialylated human erythrocytes (A+); no control of bacterial growth phase; none = no inhibition up to 20 mg/ml
# [5] = tested on: A. viscosus OMZ 105
# [6] = tested on: A. viscosus OMZ 206; experiment: Inhibition of bacterial adhesion to plastic (polypropylene) tubes, A. viscosus OMZ 206; conditions: Actinomyces viscosus, OMZ206, 4 h, read-out: Inhibition (%) of adhesion to plastic tubes, A. viscosus OMZ 206
# [7] = tested on: S. sanguis OMZ 9; conditions: for Inhibition (%) of adhesion to plastic tubes, S. sanguis OMZ 9: 1 mg/ml, 4 h; for Inhibitory effect on adhesion to plastic tubes (in words), S. sanguis OMZ 9: preliminary tests
# [8] = tested on: A. viscosus OMZ 105; conditions: for Inhibition (%) of adhesion to plastic tubes, A. viscosus OMZ 105: 1 mg/ml, 4 h; for Inhibitory effect on adhesion to plastic tubes (in words), A. viscosus OMZ 105: preliminary tests
compound,measurement,setting,value
O=C[C@H](O)[C@@H](O)[C@@H](O)[C@H](O)CO [Galactose],inhibition at 1000 µg/mL,[1],12%
same,inhibition at 1000 µg/mL,[2],12%
same,inhibition at 1000 µg/mL,[3],4%
OC[C@H]1O[C@@H](O[C@H]2[C@H](O)[C@@H](O)C(O)O[C@@H]2CO)[C@H](O)[C@@H](O)[C@H]1O (stereo partly shown) [Lactose],inhibition at 1000 µg/mL,[1],12%
same,"Minimum concentration resulting in complete inhibition of hemagglutination, A. naeslundii ATCC 12104",[4],none
same,"Minimum concentration resulting in complete inhibition of hemagglutination, expressed in galactoside equivalents/ml","[5]; A. viscosus OMZ harvested in the exponential phase, desialylated human erythrocytes (A+)",> 10 mg/mL
same,"Minimum concentration resulting in complete inhibition of hemagglutination, expressed in dry weight/ml","[5]; A. viscosus OMZ harvested in the exponential phase, desialylated human erythrocytes (A+), none = no inhibition up to 20 mg/ml",none
same,"Minimum concentration resulting in complete inhibition of hemagglutination, A. viscosus OMZ 105","[5]; desialylated human erythrocytes (A+), no control of bacterial growth phase, none = no inhibition up to 20 mg/ml",none
same,Inhibition of hemagglutinations governed by type 2 pili (in words),[5]; summary of Tables I and II,completely ineffective
same,inhibition at 1000 µg/mL,[6],15%
same,inhibition at 1000 µg/mL,[2],14%
same,inhibition at 1000 µg/mL,[3],4%
COC1OC(CO)C(O)C(O)C1O (stereo not drawn) [Methyl α mannoside],"Inhibition (%) of adhesion to plastic tubes, S. sanguis OMZ 9",[7],11%
same,"Inhibition (%) of adhesion to plastic tubes, S. mutans OMZ 176",[3],3%
same,"Inhibition (%) of adhesion to plastic tubes, A. viscosus OMZ 105",[8],10%
O=C[C@H](O)[C@@H](O)[C@H](O)[C@H](O)CO [glucose],"Inhibitory effect on adhesion to plastic tubes (in words), S. sanguis OMZ 9",[7],nonactivity
same,"Inhibitory effect on adhesion to plastic tubes (in words), A. viscosus OMZ 105",[8],nonactivity
NCC(=O)O [glycine],"Inhibitory effect on adhesion to plastic tubes (in words), S. sanguis OMZ 9",[7],nonactivity
same,"Inhibitory effect on adhesion to plastic tubes (in words), A. viscosus OMZ 105",[8],nonactivity
Polyglutamic acid,"Inhibition (%) of adhesion to plastic tubes, S. sanguis OMZ 9",[7],6%
same,"Inhibition (%) of adhesion to plastic tubes, S. mutans OMZ 176",[3],20%
same,"Inhibition (%) of adhesion to plastic tubes, A. viscosus OMZ 105",[8],22%
Polylysine,"Inhibition (%) of adhesion to plastic tubes, S. sanguis OMZ 9",[7],12%
same,"Inhibition (%) of adhesion to plastic tubes, S. mutans OMZ 176",[3],30%
same,"Inhibition (%) of adhesion to plastic tubes, A. viscosus OMZ 105",[8],46%
